# Test results from US20250018048A1, “FLUCONAZOLE-COX INHIBITOR HYBRIDS: A DUAL-ACTING CLASS OF ANTIFUNGAL AZOLES” (Ramot at Tel-Aviv University Ltd., priority 2022, published 2025).
# Experiments:
# Type in all cases: cell-based
# C. auris ATCC MYA5001 = experiment: MIC broth double-dilution assay with MTT (CLSI M27-A3); conditions: 37° C., 24 h; for MIC against C. auris 5001: YPAD medium, growth score 0 or 1; for MIC: Candidozyma auris, ATCCMYA5001, YPAD medium, growth score 0 or 1, read-out: MIC against C. auris 5001
# Description: (§1) Minimal inhibitory concentration broth double-dilution assay: C. auris minimal inhibitory concentrations (MICs) were determined using CLSI M27-A3 guidelines with minor modifications. Starter cultures were streaked from glycerol stock onto YPAD agar plates and grown for 24 h at 37° C. Colonies were suspended in 1 mL PBS and diluted to 1×10^−3 optical density at 600 nm (OD600) and then diluted 1:100 into fresh medium. hybrids dissolved in DMSO were added to YPAD broth (32 μL stock solution in 1218 μL of YPAD broth), and serial double dilutions of hybrids in YPAD were prepared in flat-bottomed 96-well microplates (Corning) to enable testing of concentrations ranging from 64 μg/mL to 0.007 μg/mL. Control wells with yeast cells but no drug and blank wells containing only YPAD were prepared. An equal volume (100 μL) of yeast suspension in YPAD broth was added to each well with the exceptions of the blank wells. After incubation for 24 h at 37° C., MTT (50 μL of a 1 mg/mL solution in ddH2O) was added to each well followed by additional incubation at 37° C. for 2 h. MIC values (Table S3) were defined as the lowest concentration of an antifungal agent that caused a specified reduction in visible growth as per the CLSI M27-A3 protocol. The magnitude of reduction in visible growth was assessed using the following numerical scale: 0, optically clear; 1, slightly hazy; 2, prominent decrease (˜50%) in visible growth; 3, slight reduction in visible growth; and 4, no reduction in visible growth. The MIC was defined based on reduction in growth to 0 or 1. Results were confirmed in two independent experiments, and each concentration was tested in triplicate. FLC and VOR were used as control drugs.
# C. auris ATCC MYA5002 = experiment: as above; conditions: 37° C., 24 h; for MIC against C. auris 5002: YPAD medium, growth score 0 or 1; for MIC: Candidozyma auris, ATCCMYA5002, YPAD medium, growth score 0 or 1, read-out: MIC against C. auris 5002
# Description: as §1
# [1] = tested on: C. albicans 742 (erg11ΔΔ/erg3ΔΔ mutant C. albicans strain); experiment: MIC80 broth double-dilution assay, strain lacking CYP51; conditions: 24 h; for MIC80 against C. albicans 742: YPAD medium, 30° C., erg11ΔΔ/erg3ΔΔ mutant lacking CYP51; for MIC80: Candida albicans, read-out: MIC80 against C. albicans 742
# How it was run: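 Double-knockout C. albicans and parent SN152 grown in YPAD at 30 °C with serial double dilutions from 64 to 0.003 μg/mL; OD600 read after 24 h (growth followed over 48 h). MIC80 taken as >80% OD600 reduction versus no-drug wells; triplicate, two independent experiments.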
# C. albicans ATCC 90028 = experiment: MIC80 broth double-dilution assay; conditions: YPAD medium, 30° C., 24 h; for MIC80: Candida albicans, ATCC90028, read-out: MIC80 against C. albicans 90028
# How it was run: (§2)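 Modified CLSI M27-A3 broth double-dilution in YPAD over 64 to 0.003 μg/mL; plates incubated 24 h at 30° C. MIC80 defined by OD600 reduction of >80% against no-drug wells.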
# C. albicans SC5314 = experiment: MIC80 broth double-dilution assay; conditions: YPAD medium, 30° C., 24 h; for MIC80: Candida albicans, SC5314, read-out: MIC80 against C. albicans SC5314
# How it was run: as §2
# C. albicans ATCC 24433 = experiment: MIC80 broth double-dilution assay; conditions: YPAD medium, 30° C., 24 h; for MIC80: Candida albicans, ATCC24433, read-out: MIC80 against C. albicans 24433
# How it was run: as §2
# C. albicans P-87 = experiment: MIC80 broth double-dilution assay; conditions: YPAD medium, 30° C., 24 h; for MIC80: Candida albicans, P87, read-out: MIC80 against C. albicans P-87
# How it was run: as §2
# C. tropicalis 660 = experiment: MIC80 broth double-dilution assay; conditions: YPAD medium, 30° C., 24 h; for MIC80: Candida tropicalis, 660, read-out: MIC80 against C. tropicalis 660
# How it was run: as §2
# C. dubliniensis T-99 = experiment: MIC80 broth double-dilution assay; conditions: YPAD medium, 30° C., 24 h; for MIC80: Candida dubliniensis, T99, read-out: MIC80 against C. dubliniensis T-99
# How it was run: as §2
# [2] = tested on: C. parapsilosis ATCC 22019; experiment: MIC80 broth double-dilution assay; conditions: YPAD medium, 30° C., 24 h; for MIC80: Lodderomyces parapsilosis, ATCC22019, read-out: MIC80 against C. parapsilosis 22019
# How it was run: as §2
SMILES,MIC against C. auris 5001 (C. auris ATCC MYA5001),MIC against C. auris 5002 (C. auris ATCC MYA5002),MIC80 against C. albicans 742 [1],MIC80 against C. albicans 90028 (C. albicans ATCC 90028),MIC80 against C. albicans SC5314 (C. albicans SC5314),MIC80 against C. albicans 24433 (C. albicans ATCC 24433),MIC80 against C. albicans P-87 (C. albicans P-87),MIC80 against C. tropicalis 660 (C. tropicalis 660),MIC80 against C. dubliniensis T-99 (C. dubliniensis T-99),MIC (C. auris ATCC MYA5001),MIC (C. auris ATCC MYA5002),MIC80 [1],MIC80 (C. albicans ATCC 90028),MIC80 (C. albicans SC5314),MIC80 [2],MIC80 (C. albicans ATCC 24433),MIC80 (C. albicans P-87),MIC80 (C. tropicalis 660),MIC80 (C. dubliniensis T-99),MIC80 against C. parapsilosis 22019 [2]
C[C@H](C(=O)NC[C@](O)(Cn1cncn1)c1ccc(F)cc1F)c1ccc(-c2ccccc2)c(F)c1 [Hybrid 5],0.06 µg/mL,4 µg/mL,64 µg/mL,0.015 µg/mL,0.007 µg/mL,0.03 µg/mL,0.015 µg/mL,0.06 µg/mL,0.5 µg/mL,,,,,,,,,,,
"OC(Cn1cncn1)(Cn1cncn1)c1ccc(F)cc1F [FLC, fluconazole]",,,inactive,,,,,,,8 µg/mL,> 64 µg/mL,> 64 µg/mL,0.5 µg/mL,0.5 µg/mL,1 µg/mL,1 µg/mL,1 µg/mL,1 µg/mL,0.25 µg/mL,
CC(C)Cc1ccc([C@H](C)C(=O)NC[C@](O)(Cn2cncn2)c2ccc(F)cc2F)cc1 [Hybrid 1],0.06 µg/mL,1 µg/mL,64 µg/mL,0.003 µg/mL,0.003 µg/mL,0.007 µg/mL,0.003 µg/mL,0.03 µg/mL,0.06 µg/mL,,,,,,,,,,,0.007 µg/mL
"C[C@@H](c1ncncc1F)[C@](O)(Cn1cncn1)c1ccc(F)cc1F [VOR, voriconazole, reference compound]",,,inactive,,,,,,,0.03 µg/mL,1 µg/mL,> 64 µg/mL,0.007 µg/mL,0.007 µg/mL,0.015 µg/mL,0.015 µg/mL,0.007 µg/mL,0.12 µg/mL,0.03 µg/mL,
